Read-outs that look alike come from different tables or passages of the source.

This experiment concerns the target T1, porcine pancreatic lipase (triacylglycerol acyl hydrolase; EC 3.1.1.3) (Sus scrofa, UniProt P00591).
T1 sequence (P00591 1-450): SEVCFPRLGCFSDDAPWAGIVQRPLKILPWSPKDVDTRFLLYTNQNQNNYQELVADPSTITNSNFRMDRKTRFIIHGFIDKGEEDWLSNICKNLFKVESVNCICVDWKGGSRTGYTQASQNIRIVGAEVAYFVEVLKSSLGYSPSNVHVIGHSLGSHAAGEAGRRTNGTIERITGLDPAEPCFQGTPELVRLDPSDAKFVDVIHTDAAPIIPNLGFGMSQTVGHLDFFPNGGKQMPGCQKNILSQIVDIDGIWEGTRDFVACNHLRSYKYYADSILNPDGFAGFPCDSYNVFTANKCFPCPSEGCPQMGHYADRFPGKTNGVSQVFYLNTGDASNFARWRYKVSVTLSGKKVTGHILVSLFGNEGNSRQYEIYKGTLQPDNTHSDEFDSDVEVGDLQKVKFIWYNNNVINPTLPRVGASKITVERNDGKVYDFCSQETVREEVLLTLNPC
The experiment is described as follows: In vitro pancreatic lipase inhibition, 4-nitrophenyl butyrate substrate. In kind it is biochemical. The conditions noted are these: means ± SD (n = 3), PBS pH 7.2, 37 °C, OD 405 nm. As to the method: The inhibition of PL was evaluated using a previously reported method.
The inhibition studies of porcine pancreatic lipase (triacylglycerol acyl hydrolase; EC 3.1.1.3) were performed employing 4-nitrophenyl butyrate as a substrate. The compounds were dissolved in MeOH at concentrations from 0.22 mM to 2.7 mM. […] Then, the substrate solution was added (10 μL of 3.2 mM in H2O:DMF, 70:30), and the plate was incubated and shaken for 30 min at 37 °C. The optical density values (OD) were acquired at 405 nm with a Synergy H1 microplate reader (BioTek, Bad Friedrichshall, Germany). The experiments were performed in triplicate, and the %inhibition was determined by the following equation:(1) %inhibition=ODcontrol−ODsample/ODcontrol× 100% where ODcontrol refers to the enzyme–substrate mixture, while ODsample corresponds to the enzyme–substrate mixture in the presence of the inhibitor.
OriginPro 2023 software (OriginLab Corp., Northampton, MA, USA) was adopted for statistical analysis. The regression coefficients were determined based on the analysis of variance (one-way ANOVA, significance level 0.01). A p-value < 0.01 was set as the threshold for significance for Tukey’s test.

Take `C/C(=C\COc1c2ccoc2cc2oc(=O)ccc12)CCC(O)C(C)(C)O` (centres unmarked) [Dihydroxybergamottin]: under “read-out: IC50”, the IC50 was 84.5 ± 1.5 µM.
Consider `COc1cc([C@H]2c3cc(O)c(OC)cc3C[C@@H](CO)[C@@H]2CO)ccc1O` [Isolariciresinol], for which the IC50 entry is on record as “low micromolar range”. Further, the IC50 (read-out: IC50) stood at 12.3 ± 1.2 µM.
`Oc1ccc(/C=C/c2cc(O)cc3c2[C@@H](c2cc(O)cc(O)c2)[C@H](c2ccc(O)cc2)O3)cc1` [ε-Viniferin, Ɛ-Viniferin]: the IC50 result is on record as “low micromolar range”. The IC50 (read-out: IC50) came to 13.2 ± 0.6 µM.

The term IC50 denotes the point on the concentration scale where inhibition reaches its midpoint.
